In paper PMC9854728, “Synthesis and Antioxidant Properties of Novel 1,2,3-Triazole-Containing Nitrones” (Antioxidants, 2022):
Like-named read-outs stand apart in the source and are kept apart here. One block for each compound: values may come before it.

Assays:
[1] = Competition with DMSO for hydroxyl radicals; conditions: tested at 100 µM, Fe3+/ascorbic acid system, 37 °C, 30 min; no = no activity
Protocol: (§1) The in vitro antioxidant assays for nitrones 8 and 9 were performed concentrations of 100 µM (from a stock solution 10 mM in 0.1% DMSO in deionized water). Several dilutions were made when the determination of IC50 values was needed. All the determinations were made, at least in triplicate, and the standard deviation of absorbance was less than 10% of the mean. The nitrones were diluted under sonification in the appropriate buffer in several dilutions (Table 1).
The hydroxyl radicals, produced by the Fe^3+/ascorbic acid system, were detected by the determination of formaldehyde produced from the oxidation of DMSO [8]. Solutions of EDTA (0.1 mM), Fe^3+ (167 μM), DMSO (33 mM) in phosphate buffer (50 mM, pH 7.4), as well as the tested compounds (10 μL final concentration 100 μM) and ascorbic acid (10 mM) were mixed in test tubes and incubated at 37 °C for 30 min. The reaction was stopped by adding CCl3COOH (17% w/v), and the % competition activity of the nitrones 8 and 9 with DMSO for hydroxyl radicals was calculated. Trolox was used as a positive control.

[2] = Inhibition of linoleic acid peroxidation (ILP) induced by AAPH; conditions: tested at 100 µM, 37 °C
Protocol: as §1
The production of conjugated diene hydroperoxide by the oxidation of linoleate sodium 16 mM linoleate sodium (10 µL) in an aqueous solution is monitored at 234 nm. AAPH 40 mM (50 µL) is used as a free radical initiator at 37 °C under air conditions, followed by the tested nitrones. This assay can be used to follow oxidative changes by recording the absorbance values at 234 nm, using Trolox as a reference compound. The experimental procedure follows our previously reported protocol.

[3] = ABTS radical cation decolorization assay; conditions: tested at 100 µM, 1 min, 734 nm; no = no activity
Protocol: as §1
ABTS stock solution in water (7 mM) was mixed with potassium persulfate (2.45 mM) and left in the dark at rt for 12–16 h before use, followed by the production of the ABTS radical cation (ABTS^+·). The assay was performed as described previously. The results were recorded after 1 min of the mixing solutions at 734 nm. Trolox was used as a positive control.

[4] = target: T1, soybean lipoxygenase (LOX) (Glycine max, UniProt P08170); assay: In vitro inhibition of soybean lipoxygenase (LOX); format: biochemical; conditions: for inhibition at 100 µM / LOX Inhibition (%): tested at 100 µM, no = no activity under the experimental conditions; for LOX Inhibition (%): 100 µM
T1 construct: purchased Aldrich Chemical Co. (Milwaukee, WI, USA)
T1 sequence (P08170 1-839): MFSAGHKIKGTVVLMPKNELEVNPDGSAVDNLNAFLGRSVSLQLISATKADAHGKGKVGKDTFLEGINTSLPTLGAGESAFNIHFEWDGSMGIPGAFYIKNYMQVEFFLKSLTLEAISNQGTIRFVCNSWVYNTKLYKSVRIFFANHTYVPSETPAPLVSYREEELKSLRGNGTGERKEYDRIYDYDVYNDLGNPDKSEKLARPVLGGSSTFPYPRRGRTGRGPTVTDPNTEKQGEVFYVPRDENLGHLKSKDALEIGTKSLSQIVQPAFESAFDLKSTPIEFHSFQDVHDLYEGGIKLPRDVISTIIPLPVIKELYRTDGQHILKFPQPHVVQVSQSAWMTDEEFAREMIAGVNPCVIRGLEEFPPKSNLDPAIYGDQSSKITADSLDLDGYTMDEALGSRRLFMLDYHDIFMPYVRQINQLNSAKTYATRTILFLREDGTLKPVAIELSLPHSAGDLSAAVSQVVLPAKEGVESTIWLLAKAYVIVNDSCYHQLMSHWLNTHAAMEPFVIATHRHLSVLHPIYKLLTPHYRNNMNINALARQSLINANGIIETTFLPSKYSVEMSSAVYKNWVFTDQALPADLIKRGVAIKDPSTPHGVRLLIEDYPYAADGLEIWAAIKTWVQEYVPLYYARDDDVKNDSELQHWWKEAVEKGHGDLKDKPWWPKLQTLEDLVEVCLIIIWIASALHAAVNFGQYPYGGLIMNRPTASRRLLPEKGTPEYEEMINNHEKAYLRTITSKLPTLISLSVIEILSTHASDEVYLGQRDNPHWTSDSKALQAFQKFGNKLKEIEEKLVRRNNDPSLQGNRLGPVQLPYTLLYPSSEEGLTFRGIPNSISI
Protocol: as §1, with “All the determinations were made, at least in triplicate, and the standard deviation of absorbance was less than 10% of the mean.” left out
The in vitro study was evaluated as reported previously. Compounds 8a–f or 9a–f (10 μL) were incubated at rt with sodium linoleate (0.1 mM) and 200 μL of enzyme solution (1/9 × 10^–4 w/v in saline). Tris buffer pH 9 was inserted. The conversion of sodium linoleate to 13-hydroperoxylinoleic acid was recorded at 234 nm. […] Several dilutions of compounds were used for the determination of IC50 values. Blank determination served as the negative control.

[5] = soybean LOX, sodium linoleate 0.1 mM, Tris buffer pH 9, read-out: LOX Inhibition IC50

melting point: 122 to 123 °C | LOX Inhibition IC50 ([4]; soybean LOX, sodium linoleate 0.1 mM, Tris buffer pH 9): equipotent to the 9d | IC50 [4, 5]: 100 µM
SMILES: CC(C)(C)[N+]([O-])=CCn1cc(-c2ccc(F)cc2F)nn1 [Nitrone 9e, N-(2-(4-(2,4-Difluorophenyl)-1H-1,2,3-Triazol-1-yl)Ethylidene)-2-Methylpropan-2-Amine Oxide]
Scavenging Activity for HO• (%) [1]: 100% | ILP (%) [2]: 100% | ABTS+• (%) [3]: no

melting point: 72 to 73 °C | IC50 [4, 5]: 40 µM
SMILES: CC(C)(C)[N+]([O-])=CCn1cc(-c2ccccc2F)nn1 [Nitrone 9b, N-(2-(4-(2-Fluorophenyl)-1H-1,2,3-Triazol-1-yl)Ethylidene)-2-Methylpropan-2-Amine Oxide]
Scavenging Activity for HO• (%) [1]: 76% | ILP (%) [2]: 73% | ABTS+• (%) [3]: no

melting point: 128 to 131 °C | IC50 [4, 5]: 100 µM
SMILES: CC(C)(C)[N+]([O-])=CCn1cc(-c2ccc(F)cc2)nn1 [Nitrone 9d, N-(2-(4-(4-Fluorophenyl)-1H-1,2,3-Triazol-1-yl)Ethylidene)-2-Methylpropan-2-Amine Oxide]
Scavenging Activity for HO• (%) [1]: 99% | ABTS+• (%) [3]: no

melting point: 104 to 107 °C | LOX inhibition, fold less potent than NDGA ([4]; IC50 27 μM vs NDGA […]): 60 fold | IC50 [4, 5]: 27 µM
SMILES: Cc1cc(-c2cn(CC=[N+]([O-])C(C)(C)C)nn2)ccc1F [Nitrone 9f, N-(2-(4-(4-Fluoro-3-Methylphenyl)-1H-1,2,3-Triazol-1-yl)Ethylidene)-2-Methylpropan-2-Amine Oxide]
Scavenging Activity for HO• (%) [1]: 99.9% | ILP (%) [2]: 87% | ABTS+• (%) [3]: 16%

melting point: 94 to 95 °C | LOX Inhibition (%) [4]: no inhibition and no
SMILES: CC(C)(C)[N+]([O-])=CCn1cc(-c2cccc(F)c2)nn1 [Nitrone 9c, N-(2-(4-(3-Fluorophenyl)-1H-1,2,3-Triazol-1-yl)Ethylidene)-2-Methylpropan-2-Amine Oxide]
Scavenging Activity for HO• (%) [1]: 89% | ABTS+• (%) [3]: no

melting point: 91 to 93 °C | inhibition at 100 µM [4]: 44%
SMILES: CC(C)(C)[N+]([O-])=CCn1cc(-c2ccccc2)nn1 [Nitrone 9a, 2-Methyl-N-(2-(4-Phenyl-1H-1,2,3-Triazol-1-yl)Ethylidene)Propan-2-Amine Oxide]
Scavenging Activity for HO• (%) [1]: 76% | ILP (%) [2]: 74.5% | ABTS+• (%) [3]: 4%

Further lines, the compound ahead of its results:

SMILES: CC(C)(C)/[N+]([O-])=C/c1ccccc1 [PBN, (Z)-N-tert-butyl-1-phenylmethanimine oxide, reference compound]
Scavenging Activity for HO• (%) [1]: no | ILP (%) [2]: 11% | ABTS+• (%) [3]: 5%

SMILES: C[N+]([O-])=CCn1cc(-c2ccccc2)nn1 [Nitrone 8a, N-(2-(4-Phenyl-1H-1,2,3-Triazol-1-yl)Ethylidene)Methanamine Oxide]
Scavenging Activity for HO• (%) [1]: 93% | melting point: 97 to 98 °C | ILP (%) [2]: 48.4% | IC50 [4, 5]: 37.5 µM | ABTS+• (%) [3]: 14%

SMILES: C[N+]([O-])=CCn1cc(-c2cccc(F)c2)nn1 [Nitrone 8c, N-(2-(4-(3-Fluorophenyl)-1H-1,2,3-Triazol-1-yl)Ethylidene)Methanamine Oxide]
Scavenging Activity for HO• (%) [1]: 59% | melting point: 158 to 160 °C | ILP (%) [2]: 65% | inhibition at 100 µM [4]: 40% | ABTS+• (%) [3]: no

SMILES: Cc1cc(-c2cn(CC=[N+](C)[O-])nn2)ccc1F [Nitrone 8f, N-(2-(4-(4-Fluoro-3-Methylphenyl)-1H-1,2,3-Triazol-1-yl)Ethylidene)Methanamine Oxide]
Scavenging Activity for HO• (%) [1]: 91.5% | melting point: 171 to 173 °C | ILP (%) [2]: 41% | inhibition at 100 µM [4]: 44% | ABTS+• (%) [3]: 34.3%

SMILES: C[N+]([O-])=CCn1cc(-c2ccc(F)cc2)nn1 [Nitrone 8d, N-(2-(4-(4-Fluorophenyl)-1H-1,2,3-Triazol-1-yl)Ethylidene)Methanamine Oxide]
Scavenging Activity for HO• (%) [1]: 80% | melting point: 165 to 167 °C | ILP (%) [2]: 54% | LOX Inhibition (%) [4]: loses its activity and no | ABTS+• (%) [3]: 5.3%

SMILES: C[N+]([O-])=CCn1cc(-c2ccc(F)cc2F)nn1 [Nitrone 8e, N-(2-(4-(2,4-Difluorophenyl)-1H-1,2,3-Triazol-1-yl)Ethylidene)Methanamine Oxide]
Scavenging Activity for HO• (%) [1]: 76% | melting point: 122 to 123 °C | ILP (%) [2]: 87% | IC50 [4]: 87.5 µM | ABTS+• (%) [3]: no

SMILES: C[N+]([O-])=CCn1cc(-c2ccccc2F)nn1 [Nitrone 8b, N-(2-(4-(2-Fluorophenyl)-1H-1,2,3-Triazol-1-yl)Ethylidene)Methanamine Oxide]
Scavenging Activity for HO• (%) [1]: 61% | melting point: 125 to 126 °C | ILP (%) [2]: 2% | inhibition at 100 µM [4]: 24% | ABTS+• (%) [3]: 13%

SMILES: Cc1c(C)c2c(c(C)c1O)CCC(C)(C(=O)O)O2 (stereo not drawn) [Trolox, reference compound]
Scavenging Activity for HO• (%) [1]: 88% | ILP (%) [2]: 93% | ABTS+• (%) [3]: 91%
